From US20230285557A1, “MULTI-PARALLEL ANALYSIS OF T-CELL THERAPIES” (The Board of Trustees of the Leland Stanford Junior …, priority 2020, published 2023)

Key:
[1] = test system: PMEL CD8^+ T cells; test: CyTOF phenotyping of ex vivo expanded PMEL T cells stimulated with or without 2HC; type: cell-based, murine; conditions: 5 mM 2HC during ex vivo expansion, vs untreated cells (effector and exhausted phenotype)
Description: This Example describes experiments performed to apply the CyTOF technology to a comprehensively capture the phenotypic space of T cells. As described below, an in-depth understanding of the phenotype of differentially activated tumor-specific T cells can be achieved by using a CyTOF technique. […] Also used in these experiments was a palladium-based mass tag cell barcoding technique that enabled simultaneous analysis and pooling of 20 samples at a time, which allowed efficient multiplexing and reducing batch effects.
Generally, cells were suspended in supplemented media: complete RPMI 1640 media (with glutamine) with 1× non-essential amino acids, 1 mM sodium pyruvate, 0.4× vitamin solution, 92 µM 2-mercaptoethanol, 10 µM ciprofloxacin, 10% fetal bovine serum (FBS), and 50 IU/ml IL-2. At Day 0, splenocytes were used at a concentration of 2×10^6/ml, 100 µL /well in 96 well plate u-bottom. The cultures were started with 100×10^6 cells per condition, in 50 mL T cell media containing 60 IU/mL IL-2, 10 µg/mL GP100, and 5 mM 2HC (85 mg). At Day 3, the cell culture was fed with 50 µL media containing 120 IU/mL IL-2 and 5 mM 2HC. At Day 4, the cell culture was fed with 80 µL media containing 120 IU/mL IL-2 and 5 mM 2HC. […]
On Day 9, cells were counted and harvested into FACS tubes for CyTOF analysis using a panel of CYTOF biomarkers (see, e.g., FIG. 1 and Table 1). […]

[2] = test system: T memory stem cells; conditions: previously reported; by altering acetyl-Coenzyme A levels; cited from earlier work

O=C([O-])CC(O)(C(=O)[O-])C(O)C(=O)[O-].[K+].[K+].[K+] (centres unmarked) [2HC, tripotassium 2-hydroxycitrate]
shift of T cell phenotype on incubation with inhibitor of acetyl-CoA production [1]: drastically shifted T cells towards a more memory like phenotype
generation of T memory stem cells [2]: increases the generation of T memory stem cells
